# Assay results: ChEMBL document CHEMBL1201862, “PubChem BioAssay data set” (2004)
#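 Cells were grown in 96-well plates and exposed to each compound for 48 hours at five concentrations; endpoints were interpolated linearly between bracketing concentrations, or set to the highest concentration if not reached. GI50 is the concentration that inhibits growth by half.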 Calls of active or inactive are those of the source. Rule as the data show it: active = GI50 up to about 1.1 µM and inactive = higher.
# Tests used:
# Assay in all cases: DTP human tumour cell line panel, 48 h
# HOP-18 = tested on: HOP-18
# DLD-1 = tested on: DLD-1
# LXFL 529 = tested on: LXFL 529
# KM-20L2 = tested on: KM-20L2
# SNB-78 = tested on: SNB-78
# M19-MEL = tested on: M19-MEL
# DMS-114 = tested on: DMS-114
# BT-549 = tested on: BT-549
# RXF 631 = tested on: RXF 631
Structure (SMILES),GI50 (HOP-18),GI50 (DLD-1),GI50 (KM-20L2),GI50 (SNB-78),GI50 (M19-MEL),GI50 (DMS-114),GI50 (BT-549),other results
Cc1nc2c(sc(=S)n2-c2ccccc2)c(=O)[nH]1,> 100 µM (inactive),> 100 µM (inactive),,,,,,GI50 (LXFL 529): > 100 µM (inactive)
COc1ccccc1C1C(Cl)C(=O)N1n1cnc2ccccc2c1=O (stereo unspecified),39.6 µM (inactive),> 100 µM (inactive),> 100 µM (inactive),> 100 µM (inactive),> 100 µM (inactive),> 100 µM (inactive),,GI50 (LXFL 529): > 100 µM (inactive)
CCCCCCCCC(O)c1ccc(/C=C\C(O)CCCC(=O)O)s1 (stereo unspecified),> 100 µM (inactive),> 100 µM (inactive),> 100 µM (inactive),> 100 µM (inactive),> 100 µM (inactive),> 100 µM (inactive),,GI50 (LXFL 529): > 100 µM (inactive)
COc1ccc(C2C(=O)c3ccc(OC)cc3OC2c2cccnc2)cc1 (stereo unspecified),,,,,,,49.9 µM (inactive),
COc1ccc2c3c1OC1C(F)C=CC4(O)C(C2)NCCC314 (stereo unspecified),,,,,,,1.93 µM (inactive),
Cc1cc(NC(=S)SCc2ccc(F)cc2)c([N+](=O)[O-])cc1C,,,,,,,28.2 µM (inactive),
c1c2c(cc(-n3nnc4c3CCCCCC4)c1-n1nnc3c1CCCCCC3)CCCCCC2,,,,13.6 µM (inactive),8.77 µM (inactive),,,GI50 (RXF 631): 10.1 µM (inactive)
O=[N+]([O-])c1cccc2nc3ccccc3c(NCCNCCO)c12,,,,,,,0.00542 µM (active),
COc1cc(C2C(C(=O)O)=C(COC(C)=O)Oc3cc4c(cc32)OCO4)cc(OC)c1OC (stereo unspecified),> 100 µM (inactive),,> 100 µM (inactive),> 100 µM (inactive),> 100 µM (inactive),> 100 µM (inactive),,GI50 (RXF 631): > 100 µM (inactive)
CC(=O)OCC1OC(N2C(=O)NC(=O)C3C=C4CCCCC4=CC32)C(OC(C)=O)C1OC(C)=O (stereo unspecified),,,,,,,> 100 µM (inactive),
OC(c1cc(C(F)(F)F)nc2c(Cl)cc(Cl)cc12)C1CCCCN1 (stereo unspecified),,,,,,,14.5 µM (inactive),
CCOC(=O)CCSS(=O)(=O)C(F)(F)F,,,,,,,> 100 µM (inactive),
C=C1c2c(cc3c(c2O)c(=O)c2ccccc2n3C)OC1(C)C,9.79 µM (inactive),> 100 µM (inactive),8.71 µM (inactive),37.2 µM (inactive),> 100 µM (inactive),99.8 µM (inactive),,GI50 (RXF 631): > 100 µM (inactive); GI50 (LXFL 529): > 100 µM (inactive)
O=C(NC(Cc1ccc(I)cc1)C(=O)O)c1ccc(I)cc1 (stereo unspecified),> 100 µM (inactive),> 100 µM (inactive),> 94.8 µM (inactive),> 89.3 µM (inactive),72.3 µM (inactive),35.8 µM (inactive),,
COc1cc(NC(C)CCCN)c2ncccc2c1 (stereo unspecified) [PRIMAQUINE PHOSPHATE],> 36.1 µM (inactive),76.6 µM (inactive),57.5 µM (inactive),> 100 µM (inactive),47.5 µM (inactive),37.7 µM (inactive),41.1 µM (inactive),GI50 (RXF 631): > 91.2 µM (inactive); GI50 (LXFL 529): 60.7 µM (inactive)
O=C(O)c1cnc2c(ccc3ncc(C(=O)O)c(O)c32)c1O,,,,,,,> 100 µM (inactive),
CC1(O)OC(=O)C2=C1CCC1C2CCC2(C)C(O)CCC12 (stereo unspecified),,,,,,,> 100 µM (inactive),

Structure (SMILES),GI50 (HOP-18),GI50 (DLD-1),GI50 (KM-20L2),GI50 (SNB-78),GI50 (M19-MEL),GI50 (DMS-114),GI50 (BT-549),other results
COC(=O)C(C(=O)OC)C1CC(=O)c2c(Br)sc(Br)c21 (stereo unspecified),,,,,,,18.4 µM (inactive),
N#C/C(N)=C(C#N)/N=C/NCc1ccccc1,,,,,,,> 100 µM (inactive),
O=C(O)C1(C(O)c2ccccc2)SCCCS1 (stereo unspecified),,,,,,,> 10 µM (inactive),
Nc1nc(N)c2cc(Sc3ccc4nc(N)nc(N)c4c3)ccc2n1,,,,,,,> 100 µM (inactive),
COC(=O)c1cc2c(cc1CC(Cc1ccc3c(c1)CCC3)C(=O)OC)CCC2 (stereo unspecified),,,,,,,> 100 µM (inactive),
Oc1ccc(-c2nc3cc(C(F)(F)F)ccc3s2)cc1,,,,,,,15.1 µM (inactive),
COC(=O)[C@@H]1O[C@]12[C@@H](CO[Si](C)(C)C(C)(C)C)O[C@@H](n1cc(C)c(=O)[nH]c1=O)[C@@H]2O[Si](C)(C)C(C)(C)C,,,,,,,15.9 µM (inactive),
O=C1CC(=O)c2c(O)cc(O)c(c2O)-c2c(ccc(O)c2O)C2=CC(=O)c3c(O)cc(O)c(c3O2)-c2c1ccc(O)c2O.O=C1CC2(O)Oc3c1c(O)cc(O)c3-c1c(ccc(O)c1O)-c1cc(=O)c3c(O)cc(O)c(c3o1)-c1c2ccc(O)c1O,,,,,,,> 50 µM (inactive),
CC1C(=O)C(C)C(c2cccs2)N(N=O)C1c1cccs1 (stereo unspecified),11.4 µM (inactive),> 100 µM (inactive),> 100 µM (inactive),> 68.2 µM (inactive),> 100 µM (inactive),95.1 µM (inactive),,
O=[N+]([O-])c1ccc(-c2nc3cc([N+](=O)[O-])ccc3[nH]2)cc1,,,,,,,31.2 µM (inactive),
Cc1cc2c(cc1C)N1Cc3c(ccc(C)c3C)N(C2)C1.Cc1cc2c(cc1C)N1Cc3cc(C)c(C)cc3N(C2)C1,> 100 µM (inactive),> 100 µM (inactive),52 µM (inactive),> 100 µM (inactive),> 100 µM (inactive),> 100 µM (inactive),,GI50 (LXFL 529): > 100 µM (inactive)
Fc1ccccc1C1CC(C(c2ccccc2)c2ccccc2)=Nc2ccccc2S1 (stereo unspecified),16.2 µM (inactive),5.41 µM (inactive),6.53 µM (inactive),,,6.85 µM (inactive),,GI50 (RXF 631): 8.04 µM (inactive); GI50 (LXFL 529): 4.23 µM (inactive)
COC(=O)N/N=C(/CC1(O)C(=O)Nc2ccc([N+](=O)[O-])cc21)c1ccccc1 (stereo unspecified),,46.7 µM (inactive),> 100 µM (inactive),20.9 µM (inactive),66.5 µM (inactive),41.9 µM (inactive),38.5 µM (inactive),GI50 (LXFL 529): 36.8 µM (inactive)
C/C(=N\Nc1nc2ccccc2[nH]1)c1cccc[n+]1[O-],,,,,,,> 100 µM (inactive),
Cc1cc(C)c(S(=O)(=O)N(CCCCN)OCCCN)c(C)c1,,,,,,,19.1 µM (inactive),
COc1ccc(/C=C2\CCNC2=O)cc1,> 100 µM (inactive),> 100 µM (inactive),> 100 µM (inactive),> 100 µM (inactive),> 100 µM (inactive),> 100 µM (inactive),,
